Results reported in PubChem BioAssay (NCI).
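96-well plates; 48 h exposure; 5 concentrations. Endpoints by linear interpolation between flanking doses. Not reached: highest tested concentration assigned. Definition used: TGI = concentration required for complete inhibition of growth.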

Legend:
Test in all cases: inhibition of tumour cell growth, NCI panel, 48 h
786-0 renal = tested on: 786-0 renal
A498 renal = tested on: A498 renal
A549 NSCLC = tested on: A549 NSCLC
ACHN renal = tested on: ACHN renal
BT-549 breast = tested on: BT-549 breast
CAKI-1 renal = tested on: CAKI-1 renal
CCRF-CEM leukemia = tested on: CCRF-CEM leukemia
COLO 205 colon = tested on: COLO 205 colon
DU-145 prostate = tested on: DU-145 prostate
EKVX NSCLC = tested on: EKVX NSCLC
HCC-2998 colon = tested on: HCC-2998 colon
HCT-116 colon = tested on: HCT-116 colon
HCT-15 colon = tested on: HCT-15 colon
HOP-62 NSCLC = tested on: HOP-62 NSCLC
HOP-92 NSCLC = tested on: HOP-92 NSCLC
HS 578T breast = tested on: HS 578T breast
HT29 colon = tested on: HT29 colon
IGROV1 ovarian = tested on: IGROV1 ovarian
K-562 leukemia = tested on: K-562 leukemia
KM12 colon = tested on: KM12 colon
M14 melanoma = tested on: M14 melanoma
MALME-3M melanoma = tested on: MALME-3M melanoma
MCF7 breast = tested on: MCF7 breast
MDA-MB-231 breast = tested on: MDA-MB-231 breast
MDA-MB-435 = tested on: MDA-MB-435
MDA-N = tested on: MDA-N
MOLT-4 leukemia = tested on: MOLT-4 leukemia
NCI-H226 lung = tested on: NCI-H226 lung
NCI-H23 lung = tested on: NCI-H23 lung
NCI-H460 lung = tested on: NCI-H460 lung
NCI-H522 lung = tested on: NCI-H522 lung
NCI/ADR-RES ovarian = tested on: NCI/ADR-RES ovarian
OVCAR-3 ovarian = tested on: OVCAR-3 ovarian
OVCAR-5 ovarian = tested on: OVCAR-5 ovarian
OVCAR-8 ovarian = tested on: OVCAR-8 ovarian
PC-3 prostate = tested on: PC-3 prostate
RXF 393 renal = tested on: RXF 393 renal
SF-268 CNS = tested on: SF-268 CNS
SF-295 CNS = tested on: SF-295 CNS
SK-MEL-2 melanoma = tested on: SK-MEL-2 melanoma
SK-MEL-28 melanoma = tested on: SK-MEL-28 melanoma
SK-MEL-5 melanoma = tested on: SK-MEL-5 melanoma
SK-OV-3 ovarian = tested on: SK-OV-3 ovarian
SN12C renal = tested on: SN12C renal
SNB-19 CNS = tested on: SNB-19 CNS
SNB-75 CNS = tested on: SNB-75 CNS
SW-620 colon = tested on: SW-620 colon
T-47D breast = tested on: T-47D breast
TK-10 renal = tested on: TK-10 renal
U251 CNS = tested on: U251 CNS
UACC-257 melanoma = tested on: UACC-257 melanoma
UACC-62 melanoma = tested on: UACC-62 melanoma
UO-31 renal = tested on: UO-31 renal
HL-60(TB) leukemia = tested on: HL-60(TB) leukemia
OVCAR-4 ovarian = tested on: OVCAR-4 ovarian
RPMI-8226 leukemia = tested on: RPMI-8226 leukemia
SR leukemia = tested on: SR leukemia
LOX IMVI melanoma = tested on: LOX IMVI melanoma
SF-539 CNS = tested on: SF-539 CNS

NCCCC[C@H](N)C(=O)Nc1ccc(-c2nc3ccccc3s2)cc1Cl
TGI (786-0 renal): 8.11 µM
TGI (A498 renal): 2.07 µM
TGI (A549 NSCLC): 9.08 µM
TGI (ACHN renal): 29.3 µM
TGI (BT-549 breast): > 42.2 µM
TGI (CAKI-1 renal): 19.2 µM
TGI (CCRF-CEM leukemia): 14.7 µM
TGI (COLO 205 colon): 17.9 µM
TGI (DU-145 prostate): 18 µM
TGI (EKVX NSCLC): 19.6 µM
TGI (HCC-2998 colon): > 38.4 µM
TGI (HCT-116 colon): 1.93 µM
TGI (HCT-15 colon): 20.5 µM
TGI (HOP-62 NSCLC): 31.7 µM
TGI (HOP-92 NSCLC): 60 µM
TGI (HS 578T breast): 51.5 µM
TGI (HT29 colon): 18.1 µM
TGI (IGROV1 ovarian): 22.7 µM
TGI (K-562 leukemia): > 25 µM
TGI (KM12 colon): 7.81 µM
TGI (M14 melanoma): 13.8 µM
TGI (MALME-3M melanoma): 28.3 µM
TGI (MCF7 breast): 9.01 µM
TGI (MDA-MB-231 breast): 26.6 µM
TGI (MDA-MB-435): 9.58 µM
TGI (MDA-N): 9.36 µM
TGI (MOLT-4 leukemia): > 24.1 µM
TGI (NCI-H226 lung): 4.62 µM
TGI (NCI-H23 lung): > 37.6 µM
TGI (NCI-H460 lung): 13.7 µM
TGI (NCI-H522 lung): 11 µM
TGI (NCI/ADR-RES ovarian): 51.8 µM
TGI (OVCAR-3 ovarian): 19.2 µM
TGI (OVCAR-5 ovarian): 17.8 µM
TGI (OVCAR-8 ovarian): > 43.9 µM
TGI (PC-3 prostate): 31.2 µM
TGI (RXF 393 renal): 27.3 µM
TGI (SF-268 CNS): 25.5 µM
TGI (SF-295 CNS): 10.2 µM
TGI (SK-MEL-2 melanoma): 32.7 µM
TGI (SK-MEL-28 melanoma): 23.4 µM
TGI (SK-MEL-5 melanoma): 25.9 µM
TGI (SK-OV-3 ovarian): 31.1 µM
TGI (SN12C renal): 27.7 µM
TGI (SNB-19 CNS): 32.9 µM
TGI (SNB-75 CNS): 26.8 µM
TGI (SW-620 colon): 23.6 µM
TGI (T-47D breast): 19.4 µM
TGI (TK-10 renal): 26.2 µM
TGI (U251 CNS): 13.7 µM
TGI (UACC-257 melanoma): 32.4 µM
TGI (UACC-62 melanoma): 28.5 µM
TGI (UO-31 renal): 18.3 µM

CCN1CCNc2c3cc(OC)ccc3nc3c([N+](=O)[O-])ccc1c23
TGI (786-0 renal): 9.61 µM
TGI (A549 NSCLC): > 10 µM
TGI (CAKI-1 renal): > 10 µM
TGI (CCRF-CEM leukemia): 3.22 µM
TGI (COLO 205 colon): 5.39 µM
TGI (DU-145 prostate): > 10 µM
TGI (EKVX NSCLC): 6.13 µM
TGI (HCC-2998 colon): 2.14 µM
TGI (HCT-15 colon): 4.29 µM
TGI (HL-60(TB) leukemia): 2.37 µM
TGI (HOP-62 NSCLC): 3.83 µM
TGI (HOP-92 NSCLC): 4.57 µM
TGI (HT29 colon): > 10 µM
TGI (IGROV1 ovarian): > 10 µM
TGI (K-562 leukemia): > 10 µM
TGI (KM12 colon): 3.42 µM
TGI (MALME-3M melanoma): 2.29 µM
TGI (MCF7 breast): 6.51 µM
TGI (MDA-MB-231 breast): 4.56 µM
TGI (MDA-MB-435): 2.2 µM
TGI (MDA-N): 2.1 µM
TGI (MOLT-4 leukemia): 1.34 µM
TGI (NCI-H23 lung): 5.46 µM
TGI (OVCAR-4 ovarian): 4.33 µM
TGI (OVCAR-8 ovarian): > 10 µM
TGI (RPMI-8226 leukemia): 3.25 µM
TGI (RXF 393 renal): 2.01 µM
TGI (SF-268 CNS): > 10 µM
TGI (SF-295 CNS): 5.55 µM
TGI (SK-MEL-28 melanoma): 5.93 µM
TGI (SK-MEL-5 melanoma): 2.53 µM
TGI (SK-OV-3 ovarian): > 10 µM
TGI (SN12C renal): 5.74 µM
TGI (SNB-75 CNS): 4.38 µM
TGI (SR leukemia): 1.16 µM
TGI (SW-620 colon): > 10 µM
TGI (T-47D breast): > 10 µM
TGI (TK-10 renal): > 10 µM
TGI (UACC-257 melanoma): 3.7 µM
TGI (UACC-62 melanoma): 4.58 µM

CC1(C)CC2C(C1=O)C1(C)CCCC2(C)C1=O (stereo unspecified)
TGI (786-0 renal): > 100 µM
TGI (A549 NSCLC): > 100 µM
TGI (ACHN renal): > 100 µM
TGI (CAKI-1 renal): > 100 µM
TGI (CCRF-CEM leukemia): > 100 µM
TGI (COLO 205 colon): > 100 µM
TGI (DU-145 prostate): > 100 µM
TGI (EKVX NSCLC): > 100 µM
TGI (HCC-2998 colon): > 100 µM
TGI (HCT-116 colon): > 100 µM
TGI (HCT-15 colon): > 100 µM
TGI (HL-60(TB) leukemia): > 100 µM
TGI (HOP-62 NSCLC): > 100 µM
TGI (HOP-92 NSCLC): > 100 µM
TGI (HS 578T breast): > 100 µM
TGI (HT29 colon): > 100 µM
TGI (IGROV1 ovarian): > 100 µM
TGI (K-562 leukemia): > 100 µM
TGI (KM12 colon): > 100 µM
TGI (LOX IMVI melanoma): > 100 µM
TGI (M14 melanoma): > 100 µM
TGI (MALME-3M melanoma): > 100 µM
TGI (MCF7 breast): > 100 µM
TGI (MDA-MB-231 breast): > 100 µM
TGI (MDA-MB-435): > 100 µM
TGI (MDA-N): > 100 µM
TGI (MOLT-4 leukemia): > 100 µM
TGI (NCI-H226 lung): > 100 µM
TGI (NCI-H23 lung): > 100 µM
TGI (NCI-H460 lung): > 100 µM
TGI (NCI/ADR-RES ovarian): > 100 µM
TGI (OVCAR-3 ovarian): > 100 µM
TGI (OVCAR-4 ovarian): > 100 µM
TGI (OVCAR-5 ovarian): > 100 µM
TGI (OVCAR-8 ovarian): > 100 µM
TGI (PC-3 prostate): > 100 µM
TGI (RPMI-8226 leukemia): > 100 µM
TGI (SF-268 CNS): > 100 µM
TGI (SF-295 CNS): > 100 µM
TGI (SF-539 CNS): > 100 µM
TGI (SK-MEL-2 melanoma): > 100 µM
TGI (SK-MEL-28 melanoma): > 100 µM
TGI (SK-MEL-5 melanoma): > 100 µM
TGI (SK-OV-3 ovarian): > 100 µM
TGI (SN12C renal): > 100 µM
TGI (SNB-75 CNS): > 100 µM
TGI (SR leukemia): > 100 µM
TGI (SW-620 colon): > 100 µM
TGI (T-47D breast): > 100 µM
TGI (TK-10 renal): > 100 µM
TGI (U251 CNS): > 100 µM
TGI (UACC-257 melanoma): > 100 µM
TGI (UACC-62 melanoma): > 100 µM
TGI (UO-31 renal): > 100 µM

COCCNC1CCC2(SCCS2)c2[nH]c3ccccc3c21 (stereo unspecified)
TGI (786-0 renal): > 100 µM
TGI (A498 renal): 86.1 µM
TGI (A549 NSCLC): > 100 µM
TGI (ACHN renal): > 100 µM
TGI (BT-549 breast): 38 µM
TGI (CAKI-1 renal): > 100 µM
TGI (CCRF-CEM leukemia): 88.3 µM
TGI (COLO 205 colon): 82.5 µM
TGI (DU-145 prostate): > 100 µM
TGI (EKVX NSCLC): > 100 µM
TGI (HCC-2998 colon): > 100 µM
TGI (HCT-116 colon): > 100 µM
TGI (HCT-15 colon): > 100 µM
TGI (HL-60(TB) leukemia): 45.8 µM
TGI (HOP-62 NSCLC): > 100 µM
TGI (HOP-92 NSCLC): 50.3 µM
TGI (HS 578T breast): > 100 µM
TGI (HT29 colon): > 100 µM
TGI (IGROV1 ovarian): > 100 µM
TGI (K-562 leukemia): > 100 µM
TGI (KM12 colon): 40.5 µM
TGI (LOX IMVI melanoma): 36 µM
TGI (M14 melanoma): 30.4 µM
TGI (MCF7 breast): 39.3 µM
TGI (MDA-MB-231 breast): 54.1 µM
TGI (MDA-MB-435): 62.1 µM
TGI (MDA-N): 57.9 µM
TGI (MOLT-4 leukemia): > 100 µM
TGI (NCI-H226 lung): > 100 µM
TGI (NCI-H23 lung): > 100 µM
TGI (NCI-H460 lung): > 100 µM
TGI (NCI-H522 lung): > 100 µM
TGI (NCI/ADR-RES ovarian): > 100 µM
TGI (OVCAR-3 ovarian): 82.1 µM
TGI (OVCAR-4 ovarian): > 100 µM
TGI (OVCAR-5 ovarian): > 100 µM
TGI (OVCAR-8 ovarian): > 100 µM
TGI (PC-3 prostate): > 100 µM
TGI (RPMI-8226 leukemia): 41.4 µM
TGI (RXF 393 renal): 40.4 µM
TGI (SF-268 CNS): > 100 µM
TGI (SF-295 CNS): > 100 µM
TGI (SF-539 CNS): 50.7 µM
TGI (SK-MEL-2 melanoma): > 100 µM
TGI (SK-MEL-28 melanoma): > 100 µM
TGI (SK-MEL-5 melanoma): 57.4 µM
TGI (SN12C renal): 91.9 µM
TGI (SNB-19 CNS): > 100 µM
TGI (SNB-75 CNS): > 100 µM
TGI (SR leukemia): 69.9 µM
TGI (SW-620 colon): > 100 µM
TGI (TK-10 renal): 44.6 µM
TGI (U251 CNS): > 100 µM
TGI (UACC-257 melanoma): 39.5 µM
